“And” between values parts separate entries of the source, which are not always exact repeats. Equal entries are not always repeated. Inconclusive results and toxic doses are left out. Cut-off read from the data, not from the text of the source: active = T/C of 150% or more; inactive = T/C below 125%.
Tested on: L1210 leukemia ip in BDF1 mice, survival T/C
Test: NCI In Vivo Anticancer Drug Screen. Data for tumor model L1210 Leukemia (intraperitoneal) in B6D2F1 (BDF1) mice
Details: endpoint: mean survival time, higher = longer survival
How it was run: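 Value reflects the ratio of survival in compound-treated mice to survival in vehicle-treated controls, with both groups carrying the same transplanted tumor.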

[1] = dose: 100.0 mg/kg/injection, schedule: Q01DX001 (ip), vehicle: saline
[2] = dose: 100.0 mg/kg/injection, schedule: Q01DX009 (ip), vehicle: saline
[3] = dose: 200.0 mg/kg/injection, schedule: Q01DX001 (ip), vehicle: saline
[4] = dose: 100.0 mg/kg/injection, schedule: Q04DX003 (ip), vehicle: Klucel (hydroxypropylcellulose) (HPC)
[5] = dose: 200.0 mg/kg/injection, schedule: Q04DX003 (ip), vehicle: Klucel (hydroxypropylcellulose) (HPC)
[6] = dose: 400.0 mg/kg/injection, schedule: Q04DX003 (ip), vehicle: Klucel (hydroxypropylcellulose) (HPC)
[7] = dose: 100.0 mg/kg/injection, schedule: Q01DX001 (ip), vehicle: carboxymethylcellulose (CMC)
[8] = dose: 200.0 mg/kg/injection, schedule: Q01DX001 (ip), vehicle: carboxymethylcellulose (CMC)
[9] = dose: 400.0 mg/kg/injection, schedule: Q01DX001 (ip), vehicle: carboxymethylcellulose (CMC)
[10] = dose: 100.0 mg/kg/injection, schedule: Q01DX001 (ip), vehicle: Klucel (hydroxypropylcellulose) (HPC)
[11] = dose: 200.0 mg/kg/injection, schedule: Q01DX001 (ip), vehicle: Klucel (hydroxypropylcellulose) (HPC)
[12] = dose: 400.0 mg/kg/injection, schedule: Q01DX001 (ip), vehicle: Klucel (hydroxypropylcellulose) (HPC)
[13] = dose: 50.0 mg/kg/injection, schedule: Q01DX001 (ip), vehicle: saline

Measured: T/C

O=C(/C=C/c1ccccc1)N1CCOCC1
inactive: dose: 50.0 mg/kg/injection, schedule: Q01DX009 (ip), vehicle: saline 95 % of control | [1] 97 % of control | [2] 97 % of control | [3] 95 % of control

CCOC(=O)/C=C/c1c[nH]c(=O)[nH]c1=O
inactive: [2] 109 % of control | dose: 100.0 mg/kg/injection, schedule: Q04DX003 (ip), vehicle: saline 103 % of control | dose: 200.0 mg/kg/injection, schedule: Q01DX009 (ip), vehicle: saline 111 % of control | dose: 200.0 mg/kg/injection, schedule: Q04DX003 (ip), vehicle: saline 97 % of control | dose: 400.0 mg/kg/injection, schedule: Q01DX009 (ip), vehicle: saline 105 % of control | dose: 400.0 mg/kg/injection, schedule: Q04DX003 (ip), vehicle: saline 94 % of control

Cc1ccccc1N
inactive: dose: 100.0 mg/kg/injection, schedule: Q04DX003 (ip), vehicle: saline with Tween-80 101 % of control | dose: 200.0 mg/kg/injection, schedule: Q04DX003 (ip), vehicle: saline with Tween-80 103 % of control | dose: 400.0 mg/kg/injection, schedule: Q04DX003 (ip), vehicle: saline with Tween-80 95 % of control

CCOC(=O)CC(c1cccc2ccccc12)c1cccc2ccc3ccccc3c12 (stereo not given)
inactive: [4] 92 % of control | [5] 86 % of control | [6] 91 % of control

CCCCNS(=O)(=O)c1ccc(Cl)c([N+](=O)[O-])c1
inactive: dose: 12.5 mg/kg/injection, schedule: Q04DX003 (ip), vehicle: Klucel (hydroxypropylcellulose) (HPC) 95 % of control | dose: 25.0 mg/kg/injection, schedule: Q04DX003 (ip), vehicle: Klucel (hydroxypropylcellulose) (HPC) 103 % of control | dose: 50.0 mg/kg/injection, schedule: Q04DX003 (ip), vehicle: Klucel (hydroxypropylcellulose) (HPC) 100 % of control | dose: 100.0 mg/kg/injection, schedule: Q04DX003 (ip), vehicle: gum acacia 103 % of control | dose: 200.0 mg/kg/injection, schedule: Q04DX003 (ip), vehicle: gum acacia 105 % of control

CCCCCCCCCCC(C1CCCC2CCCCC21)C1CCCC2CCCCC21 (stereo not given)
inactive: [7] 100 % of control | [8] 102 % of control | [9] 94 % of control

O=c1[nH][nH]c(=O)c2c1CCCC2
inactive: dose: 50.0 mg/kg/injection, schedule: Q01DX009 (ip), vehicle: saline with Tween-80 98 % of control | dose: 100.0 mg/kg/injection, schedule: Q01DX009 (ip), vehicle: saline with Tween-80 95 % of control | dose: 200.0 mg/kg/injection, schedule: Q01DX009 (ip), vehicle: saline with Tween-80 109 % of control

O=c1c2c([nH]c3ccccc13)CCCC2
inactive: [10] 97 % of control | [4] 97 % of control | [11] 88 % of control | [5] 94 % of control | [12] 93 % of control | [6] 101 % of control

COc1cc(C=Nc2ccc(-n3ccnc3C)cc2)ccc1N(CCCl)CCCl
inactive: dose: 1.0 mg/kg/injection, schedule: Q01DX009 (ip), vehicle: Klucel (hydroxypropylcellulose) (HPC) 110 % of control | dose: 2.0 mg/kg/injection, schedule: Q01DX009 (ip), vehicle: Klucel (hydroxypropylcellulose) (HPC) 114 % of control | dose: 2.5 mg/kg/injection, schedule: Q01DX009 (ip), vehicle: Klucel (hydroxypropylcellulose) (HPC) 104 % of control and 106 % of control | dose: 3.8 mg/kg/injection, schedule: Q01DX009 (ip), vehicle: Klucel (hydroxypropylcellulose) (HPC) 104 % of control | dose: 5.0 mg/kg/injection, schedule: Q01DX009 (ip), vehicle: Klucel (hydroxypropylcellulose) (HPC) 114 % of control | dose: 8.8 mg/kg/injection, schedule: Q04DX003 (ip), vehicle: Klucel (hydroxypropylcellulose) (HPC) 98 % of control and 123 % of control | dose: 19.0 mg/kg/injection, schedule: Q01DX009 (ip), vehicle: Klucel (hydroxypropylcellulose) (HPC) 110 % of control | dose: 20.0 mg/kg/injection, schedule: Q01DX009 (ip), vehicle: Klucel (hydroxypropylcellulose) (HPC) 124 % of control | dose: 29.0 mg/kg/injection, schedule: Q04DX003 (ip), vehicle: Klucel (hydroxypropylcellulose) (HPC) 102 % of control | dose: 30.0 mg/kg/injection, schedule: Q04DX003 (ip), vehicle: Klucel (hydroxypropylcellulose) (HPC) 104 % of control

O=C1C2C3CCC(O3)C2C(=O)N1CCOS(=O)(=O)c1ccc(Cl)cc1 (stereo not given)
inactive: dose: 75.0 mg/kg/injection, schedule: Q01DX009 (ip), vehicle: carboxymethylcellulose (CMC) 93 % of control | dose: 100.0 mg/kg/injection, schedule: Q04DX003 (ip), vehicle: carboxymethylcellulose (CMC) 100 % of control | dose: 150.0 mg/kg/injection, schedule: Q01DX009 (ip), vehicle: carboxymethylcellulose (CMC) 94 % of control | dose: 200.0 mg/kg/injection, schedule: Q04DX003 (ip), vehicle: carboxymethylcellulose (CMC) 102 % of control | dose: 300.0 mg/kg/injection, schedule: Q01DX009 (ip), vehicle: carboxymethylcellulose (CMC) 91 % of control | dose: 400.0 mg/kg/injection, schedule: Q04DX003 (ip), vehicle: carboxymethylcellulose (CMC) 96 % of control

C[n+]1nc2ccccc2c(=Nc2ccccc2[N+](=O)[O-])[n-]1
inactive: [10] 93 % of control | [11] 94 % of control | [12] 94 % of control

Cn1cnccc1=S
inactive: dose: 25.0 mg/kg/injection, schedule: Q01DX001 (ip), vehicle: saline 96 % of control | [13] 108 % of control

COC(=O)c1cccc(O)c1O
inactive: dose: 100.0 mg/kg/injection, schedule: Q01DX005 (ip), vehicle: other 96 % of control | dose: 100.0 mg/kg/injection, schedule: Q01DX009 (ip), vehicle: other 114 % of control | dose: 200.0 mg/kg/injection, schedule: Q01DX005 (ip), vehicle: other 100 % of control | dose: 200.0 mg/kg/injection, schedule: Q01DX009 (ip), vehicle: other 107 % of control | dose: 400.0 mg/kg/injection, schedule: Q01DX005 (ip), vehicle: other 104 % of control | dose: 400.0 mg/kg/injection, schedule: Q01DX009 (ip), vehicle: other 88 % of control

COC(=O)C1CC2c3[nH]c4ccccc4c3CCN2C1 (stereo not given)
inactive: [4] 94 % of control | [5] 92 % of control

CCN(CC)Cc1ccc([N+](=O)[O-])cc1
inactive: dose: 100.0 mg/kg/injection, schedule: Q04DX002 (ip), vehicle: saline 110 % of control | dose: 200.0 mg/kg/injection, schedule: Q04DX002 (ip), vehicle: saline 104 % of control

N#Cc1ccc(NC(=O)NNC(=O)CCCC(=O)NNC(=O)Nc2ccc(C#N)cc2)cc1
inactive: [13] 95 % of control | [1] 97 % of control | [3] 101 % of control | dose: 400.0 mg/kg/injection, schedule: Q01DX001 (ip), vehicle: saline 95 % of control

CC(C)C(=O)Nc1cccc(OC(=O)NC(C)(C)C)c1
inactive: dose: 200.0 mg/kg/injection, schedule: Q01DX001 (ip), vehicle: saline with Tween-80 89 % of control | dose: 400.0 mg/kg/injection, schedule: Q01DX001 (ip), vehicle: saline with Tween-80 87 % of control

O=C(O)c1cccc(Cl)c1F
inactive: dose: 50.0 mg/kg/injection, schedule: Q04DX002 (ip), vehicle: saline with Tween-80 97 % of control | dose: 100.0 mg/kg/injection, schedule: Q04DX002 (ip), vehicle: saline with Tween-80 97 % of control and 107 % of control | dose: 200.0 mg/kg/injection, schedule: Q04DX002 (ip), vehicle: saline with Tween-80 97 % of control

CC(=O)Nc1ccc(OC(=S)N(C)C)cc1
inactive: [4] 96 % of control | [5] 97 % of control | [6] 101 % of control

O=C(OC1CCC(c2ccccc2)C1)c1cc([N+](=O)[O-])cc([N+](=O)[O-])c1 (stereo not given)
inactive: dose: 75.0 mg/kg/injection, schedule: Q04DX003 (ip), vehicle: other 96 % of control | dose: 150.0 mg/kg/injection, schedule: Q04DX003 (ip), vehicle: other 92 % of control | dose: 300.0 mg/kg/injection, schedule: Q04DX003 (ip), vehicle: other 87 % of control

O=C1COc2ccc(Cl)cc2N1
inactive: dose: 100.0 mg/kg/injection, schedule: Q01DX009 (ip), vehicle: Klucel (hydroxypropylcellulose) (HPC) 100 % of control | dose: 200.0 mg/kg/injection, schedule: Q01DX009 (ip), vehicle: Klucel (hydroxypropylcellulose) (HPC) 97 % of control | dose: 400.0 mg/kg/injection, schedule: Q01DX009 (ip), vehicle: Klucel (hydroxypropylcellulose) (HPC) 119 % of control

CC(=O)CC(=O)C(F)(F)F.CC(=O)CC(=O)C(F)(F)F.CC(=O)CC(=O)C(F)(F)F.[Ru]
inactive: [7] 96 % of control | [8] 94 % of control | [9] 88 % of control
